Data taken from patent US4920119A, “Triazine derivatives” (Hoffmann-La Roche Inc., priority 1986, dated 1990).
pIC50: −log10 of the molar value.

Target: T1, Xanthine oxidase (Rattus norvegicus, UniProt P22985)
T1 construct: Xanthine oxidase was obtained from rat liver; from tissue; host or cells: rat liver
Assay: xanthine oxidase inhibiting activity (xanthine oxidase-catalyzed oxidation of xanthine to uric acid)
Assay type: biochemical
Conditions: xanthine oxidase from rat liver; 10^-5 molar xanthine, 0.1M tris hydrochloride pH 8.1, 30° C., uric acid formation at 293 nm
Description: Xanthine oxidase was obtained from rat liver according to the method described by E. Della Corte and F. Stirpe in Biochem.J. 117, 97 (1970) and was aged for at least 24 hours prior to use. Solutions of 3 ml of 0.1M aqueous tris hydrochloride buffer (pH 8.1) containing 10^-5 molar xanthine were treated with 200 μl of xanthine oxidase dissolved in 0.1M aqueous tris hydrochloride buffer (pH 8.1) and incubated at 30° C. in the presence and absence of a test substance, whereupon the formation of uric acid from xanthine was monitored by measuring the light absorption at 293 nm. The IC50 , namely that concentration of a test substance required to inhibit by 50% the xanthine oxidase-catalyzed oxidation of xanthine to uric acid, was then determined.

T1 sequence (P22985 whole entry): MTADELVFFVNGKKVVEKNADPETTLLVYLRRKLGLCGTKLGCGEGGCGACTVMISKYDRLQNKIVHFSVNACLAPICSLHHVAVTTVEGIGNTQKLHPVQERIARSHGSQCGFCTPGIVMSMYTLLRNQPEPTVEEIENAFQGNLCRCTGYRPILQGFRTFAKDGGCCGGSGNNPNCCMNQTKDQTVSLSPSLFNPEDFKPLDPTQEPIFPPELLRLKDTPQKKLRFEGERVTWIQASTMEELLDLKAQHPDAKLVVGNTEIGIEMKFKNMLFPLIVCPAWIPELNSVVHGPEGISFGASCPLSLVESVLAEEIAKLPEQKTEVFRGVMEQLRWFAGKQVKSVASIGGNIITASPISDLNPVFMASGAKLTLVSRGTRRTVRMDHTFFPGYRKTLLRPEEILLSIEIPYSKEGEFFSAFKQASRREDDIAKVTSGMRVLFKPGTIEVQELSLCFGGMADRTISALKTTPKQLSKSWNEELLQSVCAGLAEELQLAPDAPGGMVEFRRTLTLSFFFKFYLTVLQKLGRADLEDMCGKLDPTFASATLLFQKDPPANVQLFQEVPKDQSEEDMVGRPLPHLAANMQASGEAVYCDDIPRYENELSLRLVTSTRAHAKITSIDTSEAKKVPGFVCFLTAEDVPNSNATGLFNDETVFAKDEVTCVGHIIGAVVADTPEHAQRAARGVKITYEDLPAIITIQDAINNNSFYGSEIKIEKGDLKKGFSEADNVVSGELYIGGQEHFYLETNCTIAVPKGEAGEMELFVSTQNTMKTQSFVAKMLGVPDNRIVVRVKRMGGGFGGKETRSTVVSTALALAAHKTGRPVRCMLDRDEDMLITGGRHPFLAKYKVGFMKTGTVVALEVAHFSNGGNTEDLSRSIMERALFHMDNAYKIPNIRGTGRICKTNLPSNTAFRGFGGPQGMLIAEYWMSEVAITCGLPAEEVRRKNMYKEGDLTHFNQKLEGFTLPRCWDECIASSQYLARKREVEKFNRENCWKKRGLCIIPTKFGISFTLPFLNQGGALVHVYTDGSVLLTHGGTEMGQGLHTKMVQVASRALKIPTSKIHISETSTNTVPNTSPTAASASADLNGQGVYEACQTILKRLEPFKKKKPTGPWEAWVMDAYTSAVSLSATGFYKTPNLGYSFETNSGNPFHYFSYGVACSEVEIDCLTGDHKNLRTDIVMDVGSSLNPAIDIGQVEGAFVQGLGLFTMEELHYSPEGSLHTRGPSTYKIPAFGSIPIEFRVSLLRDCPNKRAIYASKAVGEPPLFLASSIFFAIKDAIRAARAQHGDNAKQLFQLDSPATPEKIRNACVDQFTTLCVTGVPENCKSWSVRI

| pIC50 | Structure (SMILES) |
| --- | --- |
| 7.46 | O=c1[nH]nnc2c1cnn2-c1cccc(C(F)(F)F)c1 [7-(3-Trifluoromethylphenyl)-7H-pyrazolo[3,4-d]-1,2,3-triazin-4(3H)-one] |
| 8.22 | COc1ccc(-n2ncc3c(=O)[nH]nnc32)cc1Cl [7-(3-chloro-4-methoxyphenyl)-7H-pyrazolo[3,4-d]-1,2,3-triazin-4(3H)-one] |
| 8.40 | COc1ccc(-c2nsc3c(=O)[nH]nnc23)cc1Cl [7-(3-chloro-4-methoxyphenyl)isothiazolo[4,5-d]-1,2,3-triazin-4(3H)-one] |
| 8.10 | COc1ccc(-c2nsc3c(=O)[nH]nnc23)cc1F [7-(3-fluoro-4-methoxyphenyl)isothiazolo[4,5-d]-1,2,3-triazin-4(3H)-one] |
| 8.40 | COc1ccc(-c2nsc3c(=O)[nH]nnc23)cc1C(F)(F)F [7-(3-trifluoromethyl-4-methoxyphenyl)isothiazolo[4,5-d]-1,2,3-triazin-4(3H)-one] |
| 8.15 | CC(=O)Nc1ccc(-c2nsc3c(=O)[nH]nnc23)cc1 [7-(4-acetamidophenyl)isothiazolo[4,5-d]-1,2,3-triazin-4(3H)-one] |
| 7.74 | CSc1ccc(-n2ncc3c(=O)[nH]nnc32)cc1 [7-(4-methylthiophenyl)-7H-pyrazolo[3,4-d]-1,2,3-triazin-4(3H)-one] |
| 7.32 | O=c1[nH]nnc2c(-c3cccc(C(F)(F)F)c3)nccc12 [8-(3-trifluoromethylphenyl)pyrido[3,4-d]-1,2,3-triazin-4(3H)-one] |
